Square brackets hold non-standard residues; d marks the D form. Peptide text beside a SMILES is read from it. pS = N[C@@H](COP(=O)(O)O)C(=O)O
Experiments:
Assay in all cases: Fluorescence polarization (FP) direct binding assay
human 14-3-3 isoform ϵ = target: T1, human 14-3-3 isoform ϵ (Homo sapiens, UniProt P62258); conditions: fluorescein-labeled peptide 1 nM, 20 mM MOPS pH 7, 150 mM NaCl, 0.005% CHAPS, bound given in μM, read-out: Binding affinity (KD) toward 14-3-3 isoform ϵ
T1 construct: MBP (cleaved yes); made in house; host or cells: E. coli BL21DE3
T1 sequence (P62258 1-255): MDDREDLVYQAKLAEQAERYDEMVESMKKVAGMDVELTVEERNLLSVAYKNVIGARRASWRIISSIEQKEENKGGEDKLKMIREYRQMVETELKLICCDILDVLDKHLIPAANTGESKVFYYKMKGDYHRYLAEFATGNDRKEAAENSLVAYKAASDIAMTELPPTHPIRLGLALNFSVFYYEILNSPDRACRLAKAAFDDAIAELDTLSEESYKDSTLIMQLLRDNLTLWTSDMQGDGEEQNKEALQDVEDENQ
Method in brief: (§1)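 Untagged human 14-3-3 isoforms (MBP removed) titrated from ≥5 μM down to picomolar against 1 nM fluorescein-labeled LRRK2-derived peptides, phosphorylated or not, in 20 mM MOPS pH 7, 150 mM NaCl, 0.005% CHAPS. KD from sigmoidal fit of FP (mPol) versus log protein concentration; duplicates, ≥2 independent replicates.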

human 14-3-3 isoform β = target: T2, human 14-3-3 isoform β (Homo sapiens, UniProt P31946); conditions: fluorescein-labeled peptide 1 nM, 20 mM MOPS pH 7, 150 mM NaCl, 0.005% CHAPS, at least three independent measurements, read-out: Binding affinity (KD) toward 14-3-3 isoform β
T2 construct: MBP (cleaved yes); made in house; host or cells: E. coli BL21DE3
T2 sequence (P31946 whole entry, canonical isoform): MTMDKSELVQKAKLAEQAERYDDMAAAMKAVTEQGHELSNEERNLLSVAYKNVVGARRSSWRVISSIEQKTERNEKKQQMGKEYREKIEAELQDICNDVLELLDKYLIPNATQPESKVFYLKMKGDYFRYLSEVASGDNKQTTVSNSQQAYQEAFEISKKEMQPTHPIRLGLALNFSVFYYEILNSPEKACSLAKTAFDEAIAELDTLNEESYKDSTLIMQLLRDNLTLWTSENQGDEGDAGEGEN
Method in brief: as §1

human 14-3-3 isoform θ = target: T3, human 14-3-3 isoform θ (Homo sapiens, UniProt P27348); conditions: fluorescein-labeled peptide 1 nM, 20 mM MOPS pH 7, 150 mM NaCl, 0.005% CHAPS, at least three independent measurements, read-out: Binding affinity (KD) toward 14-3-3 isoform θ
T3 construct: MBP (cleaved yes); made in house; host or cells: E. coli BL21DE3
T3 sequence (P27348 whole entry, canonical isoform): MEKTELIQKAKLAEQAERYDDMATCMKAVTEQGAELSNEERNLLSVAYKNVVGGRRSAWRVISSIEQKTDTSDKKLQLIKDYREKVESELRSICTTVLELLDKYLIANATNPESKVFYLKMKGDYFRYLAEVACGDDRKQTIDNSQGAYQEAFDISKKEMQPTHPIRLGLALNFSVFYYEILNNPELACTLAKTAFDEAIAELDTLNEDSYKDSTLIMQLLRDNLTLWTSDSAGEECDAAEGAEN
Method in brief: as §1

human 14-3-3 isoform η = target: T4, human 14-3-3 isoform η (Homo sapiens, UniProt Q04917); conditions: fluorescein-labeled peptide 1 nM, 20 mM MOPS pH 7, 150 mM NaCl, 0.005% CHAPS, at least three independent measurements, read-out: Binding affinity (KD) toward 14-3-3 isoform η
T4 construct: MBP (cleaved yes); made in house; host or cells: E. coli BL21DE3
T4 sequence (Q04917 whole entry, canonical isoform): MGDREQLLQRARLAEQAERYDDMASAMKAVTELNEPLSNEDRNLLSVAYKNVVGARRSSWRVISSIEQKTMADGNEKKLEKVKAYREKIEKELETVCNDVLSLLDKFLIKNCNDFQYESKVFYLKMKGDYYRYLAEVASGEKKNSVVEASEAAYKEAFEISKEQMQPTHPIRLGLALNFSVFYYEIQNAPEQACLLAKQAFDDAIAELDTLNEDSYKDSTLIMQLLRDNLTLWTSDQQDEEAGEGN
Method in brief: as §1

human 14-3-3 isoform ζ = target: T5, human 14-3-3 isoform ζ (Homo sapiens, UniProt P63104); conditions: fluorescein-labeled peptide 1 nM, 20 mM MOPS pH 7, 150 mM NaCl, 0.005% CHAPS, at least three independent measurements, read-out: Binding affinity (KD) toward 14-3-3 isoform ζ
T5 construct: MBP (cleaved yes); made in house; host or cells: E. coli BL21DE3
T5 sequence (P63104 whole entry, canonical isoform): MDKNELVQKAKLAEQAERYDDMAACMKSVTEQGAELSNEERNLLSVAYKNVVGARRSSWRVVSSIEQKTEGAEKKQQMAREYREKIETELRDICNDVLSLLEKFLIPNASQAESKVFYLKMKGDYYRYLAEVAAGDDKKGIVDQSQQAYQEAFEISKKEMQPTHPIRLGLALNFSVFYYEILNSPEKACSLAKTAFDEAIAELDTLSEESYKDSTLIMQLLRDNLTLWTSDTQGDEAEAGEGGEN
Method in brief: as §1

human 14-3-3 isoform σ = target: T6, human 14-3-3 isoform σ (Homo sapiens, UniProt P31947); conditions: fluorescein-labeled peptide 1 nM, 20 mM MOPS pH 7, 150 mM NaCl, 0.005% CHAPS, at least three independent measurements, read-out: Binding affinity (KD) toward 14-3-3 isoform σ
T6 construct: MBP (cleaved yes); made in house; host or cells: E. coli BL21DE3
T6 sequence (P31947 1-248): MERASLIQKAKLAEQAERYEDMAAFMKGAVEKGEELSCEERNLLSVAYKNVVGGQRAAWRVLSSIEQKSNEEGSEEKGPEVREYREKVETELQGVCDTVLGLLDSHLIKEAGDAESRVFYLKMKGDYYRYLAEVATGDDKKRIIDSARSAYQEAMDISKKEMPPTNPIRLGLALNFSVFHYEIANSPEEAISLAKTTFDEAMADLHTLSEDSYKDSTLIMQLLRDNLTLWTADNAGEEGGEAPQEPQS
Method in brief: as §1

human 14-3-3γ = target: T7, human 14-3-3γ (Homo sapiens, UniProt P61981); conditions: fluorescein-labeled peptide 1 nM, 20 mM MOPS pH 7, 150 mM NaCl, 0.005% CHAPS, at least three independent measurements, read-out: Binding affinity (KD) toward 14-3-3 isoform γ
T7 construct: MBP (cleaved yes); made in house; host or cells: E. coli BL21DE3
T7 sequence (P61981 1-247): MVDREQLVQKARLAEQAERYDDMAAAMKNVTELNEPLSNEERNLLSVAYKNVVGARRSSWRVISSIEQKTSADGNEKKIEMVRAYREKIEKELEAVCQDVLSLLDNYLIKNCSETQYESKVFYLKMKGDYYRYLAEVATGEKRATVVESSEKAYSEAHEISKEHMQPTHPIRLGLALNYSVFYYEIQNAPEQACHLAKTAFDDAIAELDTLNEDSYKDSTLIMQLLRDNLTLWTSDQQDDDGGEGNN
Method in brief: as §1

CC[C@H](C)[C@H](NC(=O)[C@H](CC(N)=O)NC(=O)[C@H](Cc1ccccc1)NC(=O)[C@@H](N)CC(C)C)C(=O)N[C@@H](CCCCN)C(=O)N[C@@H](C)C(=O)N[C@@H](CCCNC(=N)N)C(=O)N[C@@H](C)C(=O)N[C@@H](CO)C(=O)N[C@@H](COP(=O)(O)O)C(=O)N[C@@H](CO)C(=O)N1CCC[C@H]1C(=O)N[C@H](C(=O)N[C@H](C(=O)N[C@@H](CC(C)C)C(=O)N[C@H](C(=O)NCC(=O)N[C@H](C(=O)O)[C@@H](C)O)C(C)C)[C@@H](C)CC)C(C)C [pS1444] (H-LFNIKARAS[pS]SPVILVGT-OH) showed a Kd (human 14-3-3 isoform ϵ) greater than 1 µM, a Kd (human 14-3-3 isoform β) of 183 ± 25 nM and a Kd (human 14-3-3 isoform θ) of 195 ± 42 nM. For the same compound, the Kd (human 14-3-3 isoform η) was 85 ± 10 nM, the Kd (human 14-3-3 isoform ζ) was 476 ± 165 nM and the Kd (human 14-3-3 isoform σ) was 802 ± 261 nM. It also gave a Kd (human 14-3-3γ) of 106 ± 4 nM.

Source: article PMC7155755, “Binding of the Human 14-3-3 Isoforms to Distinct Sites in the Leucine-Rich Repeat Kinase 2” (Frontiers in Neuroscience, 2020)
